Results taken from patent US11632973B2, “Composition comprising taste modulation compounds, their use and foodstuff comprising them” (V. MANE FILS, priority 2015, dated 2023).
“Also recorded” adds a separate entry of the source.

Assays:
Format in all cases: in vivo
panelists = assay: Various lactams added to cheese sauce, saltiness evaluation (Deviation from Reference); settings: for perception of creaminess / perception of saltiness: cheese sauce comprising the compound, compared to the control; for Test Effects Taster 1 / Test Effects Taster 2 / Test Effects Taster 3 / Test Effects Taster 4: cheese sauce plus 5 ppm compound, compared with cheese sauce alone
Procedure: Epsilon-caprolactam, 2-piperidone, and N-methylcaprolactam were added to cheese sauce.
All cheese sauce samples were served at 21° C. Samples were stirred by hand prior to portioning to ensure even distribution of components. Approximately 9 ml of cheese sauce was served into odorless, translucent, one-ounce cups labeled with three-digit codes and capped with a lid. The samples were portioned out approximately 45 minutes prior to evaluation.
Panelists evaluated all samples in fully enclosed partitioned booths under white lights. Fizz NETWORK Software Acquisitions Biosystemes 2.47B was used for data collection. Each panelist was provided with filtered water for rinsing and instructed to follow a strict rinsing procedure. The rinsing protocol required panelists to rinse prior to tasting the first sample, and after tasting each sample.
Samples were evaluated using a Deviation from Reference (DFR) method. Panelists were given an identified reference labeled “000” and a coded sample simultaneously. The coded sample was either a blind, coded reference or a coded test sample. The panelists were instructed to taste the reference (000) first and mentally evaluate its SALTINESS intensity. Panelists were then instructed to taste and rate the coded sample's intensity for SALTINESS compared to the identified reference. Sample sets were given to the panelists in balanced, randomized order. A one-minute wait period was enforced between sample sets to reduce flavour carryover.
Panelists rated SALTINESS intensity difference from the reference using a 9-pt scale anchored with the following descriptors: (−4) Extremely less than Reference, (0) Same as Reference, (4) Extremely more than Reference. Number values were NOT shown on the scale. Statistical mean differences were calculated using one-way ANOVA using Fizz Calculations Biosystemes 2.47B. A significance level of p≤0.05 was set for statistical tests. Compared to the control the perceptions of saltiness and creaminess in the cheese sauce comprising epsilon-caprolactam, 2-piperidone, and N-methylcaprolactam is increased.

expert tasters [1] = assay: Effect on sweetness perception of Rebaudioside-A in water; settings: for Taster Observations Taster 1 / Taster Observations Taster 2 / Taster Observations Taster 3 / Taster Observations Taster 4: Reb-A 250 ppm in water, TMC level 5 ppm; for bitter interference: Rebaudioside-A at 250 ppm, 5 ppm compound; for perception of sweetness: products with high intensity sweetener, four expert tasters, vs control
Procedure: The taste perception of the products containing the high intensity sweeteners without epsilon-caprolactam or 2-piperidone (Control) is compared with the same product (Test) containing epsilon-caprolactam or 2-piperidone. […] When a tasting solution is dosed with Rebaudioside-A at 250 ppm, with either epsilon-caprolactam or 2-piperidone at each 5 ppm, “bitter interference” and brightens pure sweetness are reduced.

expert tasters [2] = assay: as above
[3] = Reb-A 25 ppm in water, TMC level 5 ppm

Row | SMILES | perception of creaminess (panelists) | perception of saltiness (panelists) | Test Effects Taster 1 (panelists) | Test Effects Taster 2 (panelists) | Test Effects Taster 3 (panelists) | Test Effects Taster 4 (panelists) | Taster Observations Taster 1 (expert tasters [1]) | Taster Observations Taster 2 (expert tasters [1]) | Taster Observations Taster 3 (expert tasters [1]) | Taster Observations Taster 4 (expert tasters [1]) | bitter interference (expert tasters [1]) | perception of sweetness (expert tasters [1]) | Taster Observations Taster 1 (expert tasters [2]; [3]) | Taster Observations Taster 2 (expert tasters [2]; [3]) | Taster Observations Taster 4 (expert tasters [2]; [3]) | Taster Observations Taster 3 (expert tasters [2]; [3]) | sweetness (expert tasters [2]; Rebaudioside-A at 25 ppm, 5 ppm compound)
1 | CN1CCCCCC1=O [N-methylcaprolactam] | increased | increased | Slight increase in saltiness | Unclean; also recorded: Slightly bitter | Bitter; also recorded: Increased saltiness | Least effective of three | – | – | – | – | – | – | – | – | – | – | –
2 | O=C1CCCCCN1 [epsilon-caprolactam] | increased | increased | Slightly bitter; also recorded: Increased saltiness | Sweeter with less linger | Cleaner; also recorded: Less lingering; also recorded: Sweeter upfront | Cleaner; also recorded: Less lingering; also recorded: Sweeter upfront | sweeter, less; also recorded: lingering,; also recorded: slightly bitter | less linger | sweeter; also recorded: cleaner,; also recorded: less lingering | sweeter upfront,; also recorded: cleaner,; also recorded: less lingering | reduced | purified and amplified | sweet,; also recorded: slightly bitter | dirty,; also recorded: unclean | slightly higher; also recorded: sweet | – | –
3 | O=C1CCCCN1 [2-piperidone] | increased | increased | Delayed saltier; also recorded: More dairy impact | Increased saltiness; also recorded: Increased creaminess | Saltier; also recorded: Creamier | Clean sweet; also recorded: Stronger sweet | clean sweet,; also recorded: control | clean sweet,; also recorded: no lingering | clean sweet,; also recorded: no bitter,; also recorded: not linger | clean sweet,; also recorded: stronger sweet | reduced | purified and amplified | sweeter,; also recorded: clean | clean sweet,; also recorded: no bitter | best - sweetest,; also recorded: clean | no bitter | purified and amplified
